Reference: patent publication US12252491B2, “IL-17A inhibitors” (Eli Lilly and Company, priority 2019, dated 2025)

Assays:
[1] = Mouse oral bioavailability; format: in vivo; settings: whole blood (dried blood spot), male mice, IV bolus 1 mg/kg vs oral 3 mg/kg, 8-hour AUC, read-out: % F (mouse)
Procedure: Oral bioavailability (% F) for compounds of the invention may be determined in mice by determination of an 8-hour blood plasma AUC (nM*hr) following intravenous and oral administration performed essentially as follows. Male mice (n=3) are administered compound via intravenous (IV) bolus (1 mg/kg) or orally (3 mg/kg). For intravenous administration, a vehicle of 20% w/v capsitol in NaPO4 buffer (25 mM) adjusted to pH 2 in a volume of 5 mL/kg is used. For oral administration, a vehicle of HEC/P80/AF/PW (probe sonicated to afford a homogeneous suspension) in a volume of 10 mL/kg is used. Blood is sampled by saphenous bleeding using K2 EDTA as anticoagulant. Approximately 20 μL of blood (or enough for 1 spot) is collected via a capillary tube and transferred to a card as a dry blood spot. Cards are allowed to dry for at least 2 hours before shipping for analysis. Blood concentration of compounds for each mouse is measured by liquid chromatography/tandem mass spectrometry at time points of 0.08 (IV only), 0.25, 0.5, 0.75, 2, 4, and 8 hours. Oral bioavailability (% F) is determined via the following equation: [% F=(AUC/Dose)PO/(AUC/Dose)IV].

[2] = target: binding of IL-17A to IL-17RA (Homo sapiens (Human), UniProt Q16552); experiment: IL-17A:IL-17RA AlphaLISA
binding of IL-17A to IL-17RA, sequence (Q16552 other isoform, or with tags, fused parts or gaps): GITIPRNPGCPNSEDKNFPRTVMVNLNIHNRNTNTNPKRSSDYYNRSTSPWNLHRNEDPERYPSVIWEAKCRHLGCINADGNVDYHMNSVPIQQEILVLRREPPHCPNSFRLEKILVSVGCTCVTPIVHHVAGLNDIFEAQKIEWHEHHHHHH
Procedure: The ability of compounds to inhibit the binding of IL-17A to IL-17RA may be assessed with an AlphaLISA assay.
To assay the compounds of the present invention, 0.1 μL of a test compound stock is serially diluted in 100% DMSO using an Echo Acoustic Liquid Handler (LabCyte Sunnydale, Calif.) in 384 well proxiplates (Perkin Elmer). A 5 μL addition of IL-17RA-FLAG is added to the plate, followed by the addition of 5 μL Avi-tagged IL-17A-His to provide a final concentration of 2 nM of IL-17RA and IL-17A, respectively. The assay is carried out in 20 mM HEPES, 150 mM NaCl, 0.05% Tween-20, 0.1% Human Serum Albumin, pH 7 and 1% DMSO. The assay mixture is allowed to incubate at room temperature for 2 hours. After the 2 hour incubation, 10 μL of streptavidin donor beads (20 μg/ml final) and anti-FLAG acceptor beads (20 μg/ml final) are added to the plate. The plate is allowed to incubate for one hour at room temp, then is read on the Envision (Perkin Elmer). The relative IC50 values are determined using a four parameter fit as shown in equation 1. In this equation, bottom and top are defined as the plateaus of the curve, and H is the Hill Slope.

human IL-17A = human IL-17A (Homo sapiens (Human), UniProt Q16552)
human IL-17A, sequence (Q16552 20-155): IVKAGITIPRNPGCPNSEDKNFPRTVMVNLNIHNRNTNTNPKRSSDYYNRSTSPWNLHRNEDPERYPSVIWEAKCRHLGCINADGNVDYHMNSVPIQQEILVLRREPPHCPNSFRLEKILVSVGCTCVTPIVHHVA
Procedure: The ability of compounds to neutralize the activity of IL-17A may be assessed with a cell-based human IL-17A neutralization assay conducted essentially as follows. […] After 48 hours, CXCL1/GROα in the culture media is measured using a commercial ELISA kit (#DY275; R&D Systems). Medium alone treatments are included in every experiment to assess the basal levels of CXCL1/GROα. Percent inhibition is calculated using the following equation:

In the case of `O=C(N[C@H](c1cn2ncc(CN3C[C@@H](C(F)(F)F)NC3=O)cc2n1)C1CCC(F)(F)CC1)c1conc1CF` [Example 7, N—[(S)-(4,4-Difluorocyclohexyl)-[7-[[(4S)-2-oxo-4-(trifluoromethyl)imidazolidin-1-yl]methyl]imidazo[1,2-b]pyridazin-2-yl]methyl]-3-(fluoromethyl)isoxazole-4-carboxamide], the bioavailability [1] is reported as 47%, the IC50 [2] is reported as 37.8 nM and the IC50 (human IL-17A) is reported as 128 nM.

For `COC[C@H](c1cnn2cc([C@@H](NC(=O)c3nonc3C3CC3)C3CCC(F)(F)CC3)nc2c1)N1C[C@@H](C(F)(F)F)NC1=O` [Example 25, 4-Cyclopropyl-N—[(S)-(4,4-difluorocyclohexyl)-[7-[(1S)-2-methoxy-1-[(4S)-2-oxo-4-(trifluoromethyl)imidazolidin-1-yl]ethyl]imidazo[1,2-b]pyridazin-2-yl]methyl]-1,2,5-oxadiazole-3-carboxamide], the bioavailability [1] was 37%, the IC50 [2] was < 9.45 nM and the IC50 (human IL-17A) was 2.2 ± 1.6 nM.

In the case of `Cc1nocc1C(=O)N[C@H](c1cn2ncc(CN3C[C@@H](C(F)(F)F)NC3=O)cc2n1)C1CCC(F)(F)CC1` [Example 3, N—[(S)-(4,4-Difluorocyclohexyl)-[7-[[(4S)-2-oxo-4-(trifluoromethyl)imidazolidin-1-yl]methyl]imidazo[1,2-b]pyridazin-2-yl]methyl]-3-methyl-isoxazole-4-carboxamide], the bioavailability [1] is reported as 35%, the IC50 [2] is reported as 27.7 ± 2.4 nM and the IC50 (human IL-17A) is reported as 127 nM.

For `COC[C@H](c1cnn2cc([C@@H](NC(=O)c3nonc3C)C3CCC(F)(F)CC3)nc2c1)N1C[C@@H](C(F)(F)F)NC1=O` [Example 24, N—[(S)-(4,4-Difluorocyclohexyl)-[7-[(1S)-2-methoxy-1-[(4S)-2-oxo-4-(trifluoromethyl)imidazolidin-1-yl]ethyl]imidazo[1,2-b]pyridazin-2-yl]methyl]-4-methyl-1,2,5-oxadiazole-3-carboxamide], the bioavailability [1] was 107%, the IC50 [2] was < 9.45 nM and the IC50 (human IL-17A) was 9.3 ± 6 nM.
